Active and inactive are the calls of the source. No cut-off for these calls is given here.

For one assay, the system named is Achaea janata. Briefly: Achaea janata L. fourth-instar larvae fed on 200 ppm compound pre-treated castor leaves for 24 hrs assessed total leaf disks consumed in 24 hrs by leaf disk bioassay. Format: functional.
For the compound `O=C(CBr)c1ccc2cc(F)ccc2c1`, the Activity is recorded as 5.
Same read-out and setting: the figure for `CSc1ccc2cc(C(=O)CBr)ccc2c1` is 8; for `O=C(CBr)c1ccc2ccccc2c1` it is 6.5.
With `O=C(CBr)c1ccc2cc(O)ccc2c1`, the Activity is on record as 4.
For the compound `O=C(CBr)c1ccc2cc(Cl)ccc2c1`, the Activity is listed as 4.5.
In the case of `CS(=O)(=O)c1ccc2cc(C(=O)CBr)ccc2c1`, the Activity was 9.
With `Cc1ccc2cc(C(=O)CBr)ccc2c1`, the Activity was 9.
Same read-out and setting: the figure for `O=C(CBr)c1ccc2cc(Br)ccc2c1` is 3.5.
As to `COc1ccc2cc(C(=O)CBr)ccc2c1`, the Activity turned out to be 4.

A further assay deals with Achaea janata. Briefly: Antifeedant activity against Achaea janata L. fourth-instar larvae fed on 100 ppm compound pre-treated castor leaves for 24 hrs assessed total leaf disks consumed in 24 hrs by leaf disk bioassay. It is filed as functional, organism-based.
`O=C(CBr)c1ccc2cc(Br)ccc2c1`: the outcome was Active.

For the origin of these results see ChEMBL document CHEMBL3044550, “Insect antifeedant potent 6-substituted -bromo-2-naphthones” (2011).
